Assay results as given in patent US7608415B2, “Analysis of intracellular modifications” (Discoverx Corporation, priority 2004, dated 2009).

Test system: IκB-PL
Assay: Homogenous EFC assay of lysates of HeLa/IκB-PL stable cell line stimulated with TNF-α
Format: cell-based
Settings: increasing time periods
Text: The second experimental example illustrates the sensitivity of the EAstern blot method by following the regulated degradation of a PL-tagged cellular protein, IκB-PL. […] Stimulation of cells with cytokines, such as TNF-α, activates a pathway that leads to phosphorylation, ubiquitination, and subsequent degradation of IκB, which in turn leads to the release and activation of NF-κB. The regulated degradation of IκB is thus an indicator for NF-κB pathway activation.
Cell lysate samples for EAstern blot analysis were prepared from a HeLa/IκB-PL stable cell line (WO 03/021265, filed Aug. 27, 2002) that was cultured and stimulated with TNF-α for increasing time periods. […] Another fraction of each was used for gel electrophoresis and transfer to PVDF blots as described above. To detect IκB-PL, the EAstern blot protocol was adapted for use with the chemiluminescent substrate Beta-Glo (Promega Corp., Cat. No. E4720). In particular, after incubating with EA Reagent, the blot was incubated at RT for 10 min in a solution of Beta-Glo:EACB (1:1, v/v), sandwiched between clear plastic sheets, and then its luminescence detected with a CCD camera.

Question: For TNF-α, which “IκB-PL EFC signal after TNF-α stimulation” value is on record?
Answer: The value was “time-dependent degradation of IκB-PL signal”.
